Laboratory results: US12275694B2, “Pharmaceutically acceptable salts of [2-(3-fluoro-5-methane-sulfonylphenoxy)ethyl](propyl)amine and uses thereof” (INTEGRATIVE RESEARCH LABORATORIES SWEDEN AB, priority 2019, dated 2025)
Read-outs that look alike come from different tables or passages of the source.

Tests used:
[1] = test system: Parkinson's patients with L-dopa induced dyskinesia (LIDs); experiment: Human clinical study, 24-hour patient home diaries, good ON time; format: in vivo; conditions: 2.0 mg up to 10 mg such as 2.5, 5.0 or 7.5 mg, compared with an amount equal to or above 10 mg
Excerpt: Home diaries have gained wide acceptance as endpoints for clinical development of therapeutics aiming to reduce treatment-related motor complications. Motor fluctuations are associated with compromise in activities of daily living and health-related quality of life. In clinical trials performed by Integrative Research Laboratories Sweden AB patients record their 24-hours motor function in 30-minute intervals, beginning at midnight. For each 30-minute interval the patient rates the state he or she has been in for the past 30 minutes; OFF, ON without troublesome dyskinesia or ON with troublesome dyskinesia. The patient also denoted the time when he or she has been asleep.
In general, an “OFF” time reduction or “good ON-time” increase of 1 hour may be considered clinically significant and has been used as an assumption in power calculations in clinical trials. […]
A valid diary is defined as not having more than 2 hours of invalid data entries (4 invalid entries) over a given 24-hour period. An invalid diary entry is defined as more than one entry recorded in each half-hour interval, an unreadable entry, or the absence of an entry in each half-hour interval. […]

[2] = Hygroscopicity test, weighed samples kept at varied humidity at 30° C. for one week; format: physicochemical; conditions: for Hygroscopicity (in words): any tested relative humidity
Procedure: After one week, the samples were weighed again and based on the original weight the percentage weight difference was calculated.

[3] = Plasma concentration of the drug in the human clinical study; format: in vivo; conditions: 2 hours after administration in the morning, 2.5 mg b.i.d.-10 mg b.i.d., patients
[4] = Procedure: The temperature was 25° C. using step intervals of 10% between 0% and 95% RH in two consecutive cycles.

For `CCCNCCOc1cc(F)cc(S(C)(=O)=O)c1` [Example 2, [2-(3-fluoro-5-methanesulfonylphenoxy)ethyl](propyl)amine], the “Good ON time (in words)” value [1] was “increased the good ON time to a larger extent”.

In the case of `CCCNCCOc1cc(F)cc(S(C)(=O)=O)c1` [Example 7, [2-(3-fluoro-5-methanesulfonylphenoxy)ethyl](propyl)amine hemi-L-tartrate], the “Hygroscopicity (in words)” value [2] is reported as “very low hygroscopicity”, the “Hygroscopicity (in words)” value ([2]; listed as L-tartaric acid salt) is reported as “not hygroscopic at any relative humidities” and the Weight change ([2]; even at very high relative humidity such as 73%, 75%, 83% or 97% for 7 days at 30° C.) is reported as at most 0.3%. The concentration at 2 h [3] was 50 to 200 nM.

With `CCCNCCOc1cc(F)cc(S(C)(=O)=O)c1` [Formula IV] the “Hygroscopicity (in words)” value [2] was “not being hygroscopic” and the Weight change ([2]; at any humidity such as any relative humidity) was at most 0.3 % by weight.

In the case of `CCCNCCOc1cc(F)cc(S(C)(=O)=O)c1.Cl` [hydrochloric acid salt, hydrochloric acid salt of [2-(3-fluoro-5-methanesulfonylphenoxy)-ethyl](propyl)amine], the Weight gain ([4]; 95% relative humidity and 25° C., DVS) is reported as “approximately 3%” and the “Hygroscopicity (in words)” value ([4]; high relative humidities) is reported as “hygroscopic at high relative humidities”.
